Measured values published in ChEMBL document CHEMBL1201862, “PubChem BioAssay data set” (2004).
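The compound was tested at five concentrations on cells cultured in 96-well plates, with a 48-hour exposure period. The concentration for 50% growth inhibition is given as GI50.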 Calls of active or inactive are those of the source. Cut-off read from the data, not from the text of the source: active = GI50 up to about 1.1 µM and inactive = higher.

Experiments:
Assay in all cases: NCI-60 cell line screen, 48 h
[1] = system: SR
[2] = system: COLO 205
[3] = system: SK-MEL-5
[4] = system: Malme-3M
[5] = system: SNB-75
[6] = system: SK-OV-3
[7] = system: MCF7
[8] = system: UO-31
[9] = system: KM12
[10] = system: BT-549
[11] = system: HOP-62
[12] = system: CAKI-1
[13] = system: UACC-62
[14] = system: MDA-MB-435
[15] = system: K562
[16] = system: EKVX
[17] = system: HT-29
[18] = system: PC-3
[19] = system: HCT-15
[20] = system: RXF 393

Row | SMILES | GI50 [1] | GI50 [2] | GI50 [3] | GI50 [4] | GI50 [5] | GI50 [6] | GI50 [7] | GI50 [8] | GI50 [9] | GI50 [10] | GI50 [11] | GI50 [12] | GI50 [13] | GI50 [14] | GI50 [15] | GI50 [16] | GI50 [17] | GI50 [18] | GI50 [19] | GI50 [20]
1 | C/C(=N\NC(=S)Nc1ccc(C)cc1)c1nc2cccnc2[nH]1 | 0.849 µM (active) | 3.9 µM (inactive) | 1.76 µM (inactive) | 4.86 µM (inactive) | 5.77 µM (inactive) | 4.3 µM (inactive) | 0.721 µM (active) | 0.649 µM (active) | 7.6 µM (inactive) | 1.23 µM (inactive) | 3.17 µM (inactive) | 1.84 µM (inactive) | 2.81 µM (inactive) | 2.94 µM (inactive) | 2.9 µM (inactive) | 0.61 µM (active) | 0.681 µM (active) | 1.73 µM (inactive) | 2.86 µM | 
2 | COc1ccc(OC)c2c1C(=O)C(O)=C(Cl)C2=O |  | > 100 µM (inactive) | > 100 µM (inactive) | > 100 µM (inactive) | > 100 µM (inactive) | > 100 µM (inactive) | > 100 µM (inactive) | > 100 µM (inactive) | > 100 µM (inactive) | > 100 µM (inactive) | > 100 µM (inactive) | > 100 µM (inactive) | > 100 µM (inactive) | > 100 µM (inactive) | > 100 µM (inactive) |  | > 100 µM (inactive) | > 100 µM (inactive) | > 100 µM | > 100 µM (inactive)
3 | CN(C)CCCNC(=O)CCNC(=O)c1cc(NC(=O)c2cc(NC(=O)c3cc(NC(=O)c4nccn4C)cn3C)cn2C)cn1C |  | 20 µM (inactive) | > 100 µM (inactive) | > 100 µM (inactive) | 54.7 µM (inactive) | > 100 µM (inactive) | > 100 µM (inactive) | > 100 µM (inactive) | > 100 µM (inactive) | > 100 µM (inactive) | > 100 µM (inactive) | > 100 µM (inactive) | > 100 µM (inactive) | > 100 µM (inactive) | > 100 µM (inactive) | > 100 µM (inactive) | > 100 µM (inactive) | > 100 µM (inactive) | > 100 µM | > 100 µM (inactive)
4 | CC(C)(C)OC(=O)Cn1ncn(NC(=O)Cc2ccccc2)c1=O | > 10 µM (inactive) | > 10 µM (inactive) | > 10 µM (inactive) | > 10 µM (inactive) |  | > 10 µM (inactive) | > 10 µM (inactive) | > 10 µM (inactive) | > 10 µM (inactive) | > 10 µM (inactive) | > 10 µM (inactive) | > 10 µM (inactive) | > 10 µM (inactive) | > 10 µM (inactive) | > 10 µM (inactive) | > 10 µM (inactive) | > 10 µM (inactive) | > 10 µM (inactive) | > 10 µM | 
5 | CC(=O)N[C@@H](Cc1ccc(O)cn1)C(=O)NC1CCCCC1 | > 100 µM (inactive) | > 100 µM (inactive) | > 100 µM (inactive) |  |  | > 100 µM (inactive) | > 100 µM (inactive) | > 100 µM (inactive) | > 100 µM (inactive) | > 100 µM (inactive) | > 100 µM (inactive) | > 100 µM (inactive) | > 100 µM (inactive) | > 100 µM (inactive) | > 100 µM (inactive) | > 100 µM (inactive) | > 100 µM (inactive) | > 100 µM (inactive) | > 100 µM | 
6 | OC(CCN1CCN(CCOC(c2ccccc2)c2ccccc2)CC1)c1ccccc1 (stereo not drawn) |  | 14.5 µM (inactive) | 15.3 µM (inactive) | 17.5 µM (inactive) | 40.9 µM (inactive) | 35.8 µM (inactive) | 22.4 µM (inactive) | 24.7 µM (inactive) | 20.9 µM (inactive) | 23.8 µM (inactive) | 20.5 µM (inactive) | 32 µM (inactive) | 11.5 µM (inactive) | 18.5 µM (inactive) |  | 19.7 µM (inactive) | 15.9 µM (inactive) | 21.5 µM (inactive) | 18.5 µM | 19.9 µM (inactive)
7 | CN(C)/C=C/c1nnc([N+](=O)[O-])s1 |  | 3.58 µM (inactive) | 12 µM (inactive) | 4.22 µM (inactive) | 23.9 µM (inactive) | 20.7 µM (inactive) | 2.17 µM (inactive) | 15.3 µM (inactive) | 7.73 µM (inactive) | 17.9 µM (inactive) | 22.8 µM (inactive) | 18.2 µM (inactive) | 16.4 µM (inactive) | 3.69 µM (inactive) |  |  | 3.57 µM (inactive) | 4.95 µM (inactive) | 12 µM | 14.7 µM (inactive)
8 | COC1CC(OC2C(C)OC(OC3C(C)OC(OC4C(O)CC(O[C@H]5CC[C@@]6(C)C(=CC[C@]7(O)[C@@H]6C[C@@H](OC(=O)/C=C/c6ccccc6)[C@@]6(C)[C@]7(O)CC[C@@]6(O)C(C)=O)C5)OC4C)CC3OC)CC2OC)OC(C)C1O (stereo partly drawn) | > 6.25 µM (inactive) | > 6.25 µM (inactive) | > 6.25 µM (inactive) | > 6.25 µM (inactive) | > 6.25 µM (inactive) | > 6.25 µM (inactive) | > 6.25 µM (inactive) | 4.52 µM (inactive) | > 6.25 µM (inactive) | > 6.25 µM (inactive) | > 6.25 µM (inactive) | > 6.25 µM (inactive) | > 6.25 µM (inactive) | > 6.25 µM (inactive) | > 6.25 µM (inactive) | > 6.25 µM (inactive) | > 6.25 µM (inactive) | > 6.25 µM (inactive) | > 6.25 µM | 
9 | COC(=O)[C@H](Cc1ccccc1)NC(=O)N(CCC#N)CCCCN(CCC#N)C(=O)N[C@@H](Cc1ccccc1)C(=O)OC |  | > 100 µM (inactive) | > 100 µM (inactive) | > 100 µM (inactive) | > 27.2 µM (inactive) | > 100 µM (inactive) | > 100 µM (inactive) | > 100 µM (inactive) | > 100 µM (inactive) | > 100 µM (inactive) | > 100 µM (inactive) | > 100 µM (inactive) | > 100 µM (inactive) | > 100 µM (inactive) | > 100 µM (inactive) | > 100 µM (inactive) |  | > 100 µM (inactive) | > 100 µM | > 58.1 µM (inactive)
10 | COc1ccc(CCN(C)C(=O)CC(C#N)(c2ccccc2)c2ccc(OC)c(OC)c2)cc1OC (stereo not drawn) |  | > 100 µM (inactive) | 98.4 µM (inactive) | > 100 µM (inactive) | > 100 µM (inactive) | > 100 µM (inactive) | > 100 µM (inactive) | > 74.6 µM (inactive) | > 100 µM (inactive) | > 100 µM (inactive) | > 100 µM (inactive) | > 100 µM (inactive) | > 100 µM (inactive) | > 100 µM (inactive) | > 42.2 µM (inactive) | > 100 µM (inactive) | > 100 µM (inactive) | > 100 µM (inactive) | > 100 µM | > 86.5 µM (inactive)
11 | CCc1c(Cl)c(C)cc(O)c1Cl |  | 43.7 µM (inactive) | 15.3 µM (inactive) | 30.1 µM (inactive) | 56.8 µM (inactive) | > 100 µM (inactive) | 32 µM (inactive) | 23.7 µM (inactive) | 22.6 µM (inactive) | 16.6 µM (inactive) | > 100 µM (inactive) | 74.1 µM (inactive) | 32.6 µM (inactive) | 35.6 µM (inactive) | 33.7 µM (inactive) | 36.2 µM (inactive) | 27.5 µM (inactive) | 19.6 µM (inactive) | 17.8 µM | 23.4 µM (inactive)
12 | O=C1OC(=O)C2CCCC3CCCC1C32 (stereo not drawn) |  | > 100 µM (inactive) | > 100 µM (inactive) | > 100 µM (inactive) | > 100 µM (inactive) | > 100 µM (inactive) | > 100 µM (inactive) | > 100 µM (inactive) | > 100 µM (inactive) | > 100 µM (inactive) | > 100 µM (inactive) | > 100 µM (inactive) | > 100 µM (inactive) | > 100 µM (inactive) | > 100 µM (inactive) | > 100 µM (inactive) | > 100 µM (inactive) | > 100 µM (inactive) | > 100 µM | > 100 µM (inactive)
13 | Nc1ncnc2c1ccn2COC(CO)CO |  |  | > 100 µM (inactive) | > 100 µM (inactive) | > 100 µM (inactive) | > 100 µM (inactive) | 92 µM (inactive) | > 100 µM (inactive) | > 100 µM (inactive) | > 100 µM (inactive) | > 100 µM (inactive) | > 100 µM (inactive) | 37.4 µM (inactive) | 62.8 µM (inactive) | > 100 µM (inactive) | > 100 µM (inactive) | > 100 µM (inactive) | > 100 µM (inactive) | > 100 µM | 49.4 µM (inactive)
14 | CCN(CC)CCC(=O)/C=C/c1ccc(Cl)c(Cl)c1 | 2.83 µM (inactive) | 3.85 µM (inactive) |  | 3.77 µM (inactive) |  |  | 3.36 µM (inactive) |  | 2.36 µM (inactive) | 4.49 µM (inactive) | > 10 µM (inactive) |  |  | 3.21 µM (inactive) | 3.68 µM (inactive) | > 10 µM (inactive) |  | 4.31 µM (inactive) | 3.66 µM | 
15 | CC1(O)CCC(C(C)(C)O)CC1 (stereo not drawn) [TERPIN] | > 100 µM (inactive) | > 100 µM (inactive) | > 100 µM (inactive) |  | > 100 µM (inactive) | > 100 µM (inactive) | > 100 µM (inactive) | > 100 µM (inactive) | > 100 µM (inactive) | > 100 µM (inactive) | > 100 µM (inactive) | > 100 µM (inactive) | > 100 µM (inactive) | > 100 µM (inactive) | > 100 µM (inactive) | 0.505 µM (active) | > 100 µM (inactive) | > 100 µM (inactive) | > 100 µM | 
